# Results from patent US11161842B2, “Bifunctional molecules for degradation of EGFR and methods of use” (Dana-Farber Cancer Institute, Inc., priority 2016, dated 2021).
# How the values were obtained:
# [1] = molecular target: T1, T790M/L858R transformed Ba/F3 cells (Homo sapiens, UniProt P00533, T790M/L858R, cells depend on it); assay: Ba/F3 cell proliferation (MTS) assay, T790M/L858R; assay type: cell-based, murine; conditions: for EC50: antiproliferative activity; for % control: compound at 1 μM, inhibition of growth as percent of control
# T1 construct: The constructs were shuttled into the retroviral vector JP 1540 using the BD Creator™ System (BD Biosciences)
# Excerpt: The EGFR mutant L858R, Del E746_A750, L858R/T790M, DelE746_A750/T790M, L858R/T790M/C797S and Del/T790M/C797S Ba/F3 cells have been previously described (Zhou, W., Ercan, D., Chen, L., Yun, C. H., Li, D., Capelletti, M., Cortot, A. B., Chirieac, L., Iacob, R. E., Padera, R., et al. “Novel mutant-selective EGFR kinase inhibitors against EGFR T790M,” Nature 462, (2009), 1070-1074). All cell lines were maintained in RPMI 1640 (Cellgro; Mediatech Inc., Herndon, Calif.) supplemented with 10% FBS 100 units/mL penicillin, 100 units/mL streptomycin, and 2 mM glutamine. L858R cells were maintained in ACL-4 media (Invitrogen, Carlsbad, Calif.) supplemented with 5% FBS, 100 units/mL penicillin, 100 units/mL streptomycin, and 2 mM glutamine. The EGFR I941R mutation was introduced via site directed mutagenesis using the Quick Change Site-Directed Mutagenesis kit (Stratagene; La Jolla, Calif.) according to the manufacturer's instructions. All constructs were confirmed by DNA sequencing. The constructs were shuttled into the retroviral vector JP 1540 using the BD Creator™ System (BD Biosciences). Ba/F3 cells were infected with retrovirus and according to standard protocols, as described previously (Zhou et al, Nature 2009). Stable clones were obtained by selection in puromycin (2 μg/ml).
# Growth and inhibition of growth was assessed by MTS assay and was performed according to previously established methods (Zhou et al., Nature 2009). The MTS assay is a colorimetric method for determining the number of viable cells that is based on the bioreduction of MTS by cells to a formazan product that is soluble in cell culture medium and can be detected spectrophotometrically. Ba/F3 cells of different EGFR genotypes were exposed to treatment for 72 hours and the number of cells used per experiment determined empirically and has been previously established (Zhou et al., Nature 2009). All experimental points were set up in six wells and all experiments were repeated at least three times. […] The curves were fitted using a non-linear regression model with a sigmoidal dose response.
# Compounds of Table 1 were tested at a concentration of 1 μM against T790M/L858R transformed Ba/F3 cells. The assay, as described in Example 42, measured inhibition of growth as a percent of the inhibitory activity of the control. In Table 1, A is 0<% control <25, B is 25<% control <50, C is 50<% control <75, and D is 75<% control.
# Compounds of Table 2 were tested in a T790M/L858R transformed Ba/F3 cell line as described in Example 42 and the EC50 values were calculated. In Table 2, A is EC50<500 nM, B is 500 nM<EC50<1000 nM, C is 1000 nM<EC50<5000 nM, and D is 5000 nM<EC50.
# [2] = molecular target: T2, T790M/L858R/C797S transformed Ba/F3 cells (Homo sapiens, UniProt P00533, T790M/C797S/L858R, cells depend on it); assay: Ba/F3 cell proliferation (MTS) assay, T790M/L858R/C797S; assay type: cell-based, murine; conditions: antiproliferative activity
# T2 construct: The constructs were shuttled into the retroviral vector JP 1540 using the BD Creator™ System (BD Biosciences)
# T2 sequence (P00533 whole entry T790M/C797S/L858R): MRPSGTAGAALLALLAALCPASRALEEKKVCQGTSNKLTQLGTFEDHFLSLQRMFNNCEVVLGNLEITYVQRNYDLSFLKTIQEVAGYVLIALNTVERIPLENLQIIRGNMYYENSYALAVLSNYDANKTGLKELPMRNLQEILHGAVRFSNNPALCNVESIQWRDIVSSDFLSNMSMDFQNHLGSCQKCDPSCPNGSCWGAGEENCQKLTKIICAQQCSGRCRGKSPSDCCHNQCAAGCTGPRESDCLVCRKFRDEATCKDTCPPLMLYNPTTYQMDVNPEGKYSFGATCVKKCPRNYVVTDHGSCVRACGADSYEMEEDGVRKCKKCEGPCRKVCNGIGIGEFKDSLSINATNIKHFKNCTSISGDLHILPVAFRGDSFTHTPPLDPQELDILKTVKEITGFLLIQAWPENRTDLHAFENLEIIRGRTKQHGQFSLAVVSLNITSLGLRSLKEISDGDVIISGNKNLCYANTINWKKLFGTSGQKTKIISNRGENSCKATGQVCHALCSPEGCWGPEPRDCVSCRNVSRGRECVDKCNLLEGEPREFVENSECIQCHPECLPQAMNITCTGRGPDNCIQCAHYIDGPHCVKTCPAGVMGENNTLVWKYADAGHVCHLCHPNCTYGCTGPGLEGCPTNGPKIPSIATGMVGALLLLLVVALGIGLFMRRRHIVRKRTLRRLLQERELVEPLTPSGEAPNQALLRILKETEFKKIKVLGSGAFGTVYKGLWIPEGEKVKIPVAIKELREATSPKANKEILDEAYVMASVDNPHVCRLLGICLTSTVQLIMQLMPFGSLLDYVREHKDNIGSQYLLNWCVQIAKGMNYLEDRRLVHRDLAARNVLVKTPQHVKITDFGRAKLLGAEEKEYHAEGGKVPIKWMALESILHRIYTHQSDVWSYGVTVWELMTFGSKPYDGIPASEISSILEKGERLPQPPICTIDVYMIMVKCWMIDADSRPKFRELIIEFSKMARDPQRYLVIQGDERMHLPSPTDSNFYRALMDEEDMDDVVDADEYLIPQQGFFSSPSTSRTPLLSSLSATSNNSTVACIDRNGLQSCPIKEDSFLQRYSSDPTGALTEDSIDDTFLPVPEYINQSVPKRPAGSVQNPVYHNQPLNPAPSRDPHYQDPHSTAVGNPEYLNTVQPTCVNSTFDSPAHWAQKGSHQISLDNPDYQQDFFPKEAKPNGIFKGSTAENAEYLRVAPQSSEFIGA
# T1 sequence (P00533 whole entry T790M/L858R): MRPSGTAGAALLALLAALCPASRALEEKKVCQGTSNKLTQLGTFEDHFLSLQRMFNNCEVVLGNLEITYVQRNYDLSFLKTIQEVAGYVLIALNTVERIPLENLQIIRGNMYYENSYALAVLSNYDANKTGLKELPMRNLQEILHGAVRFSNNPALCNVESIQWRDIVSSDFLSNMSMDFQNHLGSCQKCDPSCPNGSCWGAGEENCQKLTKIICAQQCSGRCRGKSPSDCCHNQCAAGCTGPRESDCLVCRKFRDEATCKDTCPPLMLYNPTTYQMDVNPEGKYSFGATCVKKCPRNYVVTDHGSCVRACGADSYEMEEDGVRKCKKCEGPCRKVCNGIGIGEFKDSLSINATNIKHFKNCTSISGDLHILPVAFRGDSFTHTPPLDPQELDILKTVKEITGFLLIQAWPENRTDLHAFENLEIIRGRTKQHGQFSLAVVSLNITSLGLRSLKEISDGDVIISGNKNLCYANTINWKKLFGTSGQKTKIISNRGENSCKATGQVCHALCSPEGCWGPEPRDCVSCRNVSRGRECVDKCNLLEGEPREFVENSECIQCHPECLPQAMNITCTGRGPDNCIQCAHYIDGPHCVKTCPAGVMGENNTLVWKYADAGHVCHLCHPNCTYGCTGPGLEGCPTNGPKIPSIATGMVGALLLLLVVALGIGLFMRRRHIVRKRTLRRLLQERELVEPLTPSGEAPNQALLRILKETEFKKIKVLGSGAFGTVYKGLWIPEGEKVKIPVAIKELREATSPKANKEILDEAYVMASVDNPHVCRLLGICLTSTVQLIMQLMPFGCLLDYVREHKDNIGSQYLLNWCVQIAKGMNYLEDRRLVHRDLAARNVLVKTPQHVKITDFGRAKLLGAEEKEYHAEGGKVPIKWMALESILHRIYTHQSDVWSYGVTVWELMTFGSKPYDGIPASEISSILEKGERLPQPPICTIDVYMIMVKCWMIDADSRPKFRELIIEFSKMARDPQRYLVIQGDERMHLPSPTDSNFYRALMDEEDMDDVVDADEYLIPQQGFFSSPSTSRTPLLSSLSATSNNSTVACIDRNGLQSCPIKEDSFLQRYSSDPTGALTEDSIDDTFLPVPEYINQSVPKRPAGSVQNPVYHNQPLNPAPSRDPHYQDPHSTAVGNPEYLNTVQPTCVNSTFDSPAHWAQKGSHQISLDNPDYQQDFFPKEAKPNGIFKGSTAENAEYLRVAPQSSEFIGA
SMILES,EC50 [1] [nM],% control [1],EC50 [2] [nM]
"O=C1CCC(N2C(=O)c3cccc(NCCOCCOCCOCCC(=O)N4CCN(c5ccc(-c6ccc7c(c6)C(=O)N(C(C(=O)Nc6nccs6)c6ccccc6)C7)cc5)CC4)c3C2=O)C(=O)N1 (centres unmarked) [Compound I-1, 2-(6-(4-(4-(3-(2-(2-(2-((2-(2,6-Dioxopiperidin-3-yl)-1,3-dioxoisoindolin-4-yl)amino)ethoxy)ethoxy)ethoxy)propanoyl)piperazin-1-yl)phenyl)-1-oxoisoindolin-2-yl)-2-phenyl-N-(thiazol-2-yl)acetamide]",< 500,A (A is 0<% control <25),500 to 1000
"O=C1CCC(N2C(=O)c3cccc(NCCOCCOCCC(=O)N4CCN(c5ccc(-c6ccc7c(c6)C(=O)N(C(C(=O)Nc6nccs6)c6ccccc6)C7)cc5)CC4)c3C2=O)C(=O)N1 (centres unmarked) [Compound I-7, 2-(6-(4-(4-(3-(2-(2-((2-(2,6-Dioxopiperidin-3-yl)-1,3-dioxoisoindolin-4-yl)amino)ethoxy)ethoxy)propanoyl)piperazin-1-yl)phenyl)-1-oxoisoindolin-2-yl)-2-phenyl-N-(thiazol-2-yl)acetamide]",–,B (B is 25<% control <50),–
"O=C1CCC(N2C(=O)c3cccc(NCCOCCOCCOCCN4CCN(c5ccc(-c6ccc7c(c6)C(=O)N(C(C(=O)Nc6nccs6)c6cc(F)ccc6O)C7)cc5)CC4)c3C2=O)C(=O)N1 (centres unmarked) [Compound I-10, 2-(6-(4-(4-(2-(2-(2-(2-((2-(2,6-Dioxopiperidin-3-yl)-1,3-dioxoisoindolin-4-yl)amino)ethoxy)ethoxy)ethoxy)ethyl)piperazin-1-yl)phenyl)-1-oxoisoindolin-2-yl)-2-(5-fluoro-2-hydroxyphenyl)-N-(thiazol-2-yl)acetamide]",1000 to 5000,B (B is 25<% control <50),> 5000
"Cc1ncsc1-c1ccc(CNC(=O)[C@@H]2C[C@@H](O)CN2C(=O)[C@@H](NC(=O)CCOCCOCCOCCC(=O)N2CCN(c3ccc(-c4ccc5c(c4)C(=O)N(C(C(=O)Nc4nccs4)c4ccccc4)C5)cc3)CC2)C(C)(C)C)cc1 (stereo partly drawn) [Compound I-25, (2S,4R)-1-((2S)-2-(tert-Butyl)-4,16-dioxo-16-(4-(4-(3-oxo-2-(2-oxo-1-phenyl-2-(thiazol-2-ylamino)ethyl)isoindolin-5-yl)phenyl)piperazin-1-yl)-7,10,13-trioxa-3-azahexadecanoyl)-4-hydroxy-N-(4-(4-methylthiazol-5-yl)benzyl)pyrrolidine-2-carboxamide]",–,D (D is 75<% control),–
"Cc1ncsc1-c1ccc(CNC(=O)[C@@H]2C[C@@H](O)CN2C(=O)[C@@H](NC(=O)CCOCCOCCOCCC(=O)N2CCN(c3ccc(-c4ccc5c(c4)C(=O)N(C(C(=O)Nc4nccs4)c4cc(F)ccc4O)C5)cc3)CC2)C(C)(C)C)cc1 (stereo partly drawn) [Compound I-26, (2S,4R)-1-((2S)-2-(tert-Butyl)-16-(4-(4-(2-(1-(5-fluoro-2-hydroxyphenyl)-2-oxo-2-(thiazol-2-ylamino)ethyl)-3-oxoisoindolin-5-yl)phenyl)piperazin-1-yl)-4,16-dioxo-7,10,13-trioxa-3-azahexadecanoyl)-4-hydroxy-N-(4-(4-methylthiazol-5-yl)benzyl)pyrrolidine-2-carboxamide]",–,D (D is 75<% control),–
"CC1(N2C(=O)c3cccc(NCCOCCOCCOCCC(=O)N4CCN(c5ccc(-c6ccc7c(c6)C(=O)N(C(C(=O)Nc6nccs6)c6ccccc6)C7)cc5)CC4)c3C2=O)CCC(=O)NC1=O (centres unmarked) [Compound I-27, 2-(6-(4-(4-(3-(2-(2-(2-((2-(3-Methyl-2,6-dioxopiperidin-3-yl)-1,3-dioxoisoindolin-4-yl)amino)ethoxy)ethoxy)ethoxy)propanoyl)piperazin-1-yl)phenyl)-1-oxoisoindolin-2-yl)-2-phenyl-N-(thiazol-2-yl)acetamide]",–,D (D is 75<% control),–
O=C1CCC(N2C(=O)c3cccc(N4CCN(c5ccc(-c6ccc7c(c6)C(=O)N(C(C(=O)Nc6nccs6)c6ccccc6)C7)cc5)CC4)c3C2=O)C(=O)N1 (centres unmarked) [Compound I-35],–,D (D is 75<% control),–
"O=C(Nc1nccs1)C(c1ccccc1)N1Cc2ccc(-c3ccc(N4CCNCC4)cc3)cc2C1=O (centres unmarked) [TL Compd 1, 2-(1-oxo-6-(4-(piperazin-1-yl)phenyl)isoindolin-2-yl)-2-phenyl-N-(thiazol-2-yl)acetamide]",–,B (B is 25<% control <50),–
O=C(Nc1nccs1)C(c1cc(F)ccc1O)N1Cc2ccc(-c3ccc(N4CCNCC4)cc3)cc2C1=O (centres unmarked) [TL Compd 2],–,D (D is 75<% control),–

# Other lines, results leading:
EC50 [1] [nM],% control [1],EC50 [2] [nM],SMILES
–,D (D is 75<% control),–,"O=C1CCC(N2C(=O)c3cccc(NCCOCCC(=O)N4CCN(c5ccc(-c6ccc7c(c6)C(=O)N(C(C(=O)Nc6nccs6)c6ccccc6)C7)cc5)CC4)c3C2=O)C(=O)N1 (centres unmarked) [Compound I-8, 2-(6-(4-(4-(3-(2-((2-(2,6-Dioxopiperidin-3-yl)-1,3-dioxoisoindolin-4-yl)amino)ethoxy)propanoyl)piperazin-1-yl)phenyl)-1-oxoisoindolin-2-yl)-2-phenyl-N-(thiazol-2-yl)acetamide]"
1000 to 5000,B (B is 25<% control <50),> 5000,"O=C1CCC(N2C(=O)c3cccc(NCCCCCCN4CCN(c5ccc(-c6ccc7c(c6)C(=O)N(C(C(=O)Nc6nccs6)c6cc(F)ccc6O)C7)cc5)CC4)c3C2=O)C(=O)N1 (centres unmarked) [Compound I-11, 2-(6-(4-(4-(6-((2-(2,6-Dioxopiperidin-3-yl)-1,3-dioxoisoindolin-4-yl)amino)hexyl)piperazin-1-yl)phenyl)-1-oxoisoindolin-2-yl)-2-(5-fluoro-2-hydroxyphenyl)-N-(thiazol-2-yl)acetamide]"
1000 to 5000,B (B is 25<% control <50),> 5000,"O=C1CCC(N2C(=O)c3cccc(NCCCCCCCCN4CCN(c5ccc(-c6ccc7c(c6)C(=O)N(C(C(=O)Nc6nccs6)c6cc(F)ccc6O)C7)cc5)CC4)c3C2=O)C(=O)N1 (centres unmarked) [Compound I-12, 2-(6-(4-(4-(8-((2-(2,6-Dioxopiperidin-3-yl)-1,3-dioxoisoindolin-4-yl)amino)octyl)piperazin-1-yl)phenyl)-1-oxoisoindolin-2-yl)-2-(5-fluoro-2-hydroxyphenyl)-N-(thiazol-2-yl)acetamide]"
–,C (C is 50<% control <75),–,"O=C1CCC(N2C(=O)c3cccc(NCCCCCCN4CCN(c5ccc(-c6ccc7c(c6)C(=O)N(C(C(=O)Nc6nccs6)c6ccccc6)C7)cc5)CC4)c3C2=O)C(=O)N1 (centres unmarked) [Compound I-17, 2-(6-(4-(4-(6-((2-(2,6-Dioxopiperidin-3-yl)-1,3-dioxoisoindolin-4-yl)amino)hexyl)piperazin-1-yl)phenyl)-oxoisoindolin-2-yl)2-phenyl-N-(thiazol-2-yl)acetamide]"
–,D (D is 75<% control),–,"O=C1CCC(N2C(=O)c3cccc(NCCCCCCCCN4CCN(c5ccc(-c6ccc7c(c6)C(=O)N(C(C(=O)Nc6nccs6)c6ccccc6)C7)cc5)CC4)c3C2=O)C(=O)N1 (centres unmarked) [Compound I-19, 2-(6-(4-(4-(8-((2-(2,6-Dioxopiperidin-3-yl)-1,3-dioxoisoindolin-4-yl)amino)octyl)piperazin-1-yl)phenyl)-1-oxoisoindolin-2-yl)-2-phenyl-N-(thiazol-2-yl)acetamide]"
–,C (C is 50<% control <75),–,"O=C1CCC(N2C(=O)c3cccc(NCCOCCOCCN4CCN(c5ccc(-c6ccc7c(c6)C(=O)N(C(C(=O)Nc6nccs6)c6ccccc6)C7)cc5)CC4)c3C2=O)C(=O)N1 (centres unmarked) [Compound I-21, 2-(6-(4-(4-(2-(2-(2-((2-(2,6-Dioxopiperidin-3-yl)-1,3-dioxoisoindolin-4-yl)amino)ethoxy)ethoxy)ethyl)piperazin-1-yl)phenyl)-1-oxoisoindolin-2-yl)-2-phenyl-N-(thiazol-2-yl)acetamide]"
